# Data published in PubChem BioAssay AID1996.
# Details: buffer; pH 7.4; 200.0 µM
row,SMILES,solubility kinetic [µg/mL]
1,Nc1nc(NCc2ccc(Cl)cc2)nc(NCCO)c1[N+](=O)[O-],45.9
2,CCN(C(=O)CSc1nc2ccc(C)cc2[nH]1)C1CCS(=O)(=O)C1 (stereo unspecified),> 55.1
3,CCc1nc2c(c(=O)[nH]1)C(CC)(CC)Cc1ccccc1-2,0.7
4,COc1cc(C)cc(CN2CC=C(c3ccccc3)CC2)c1O,12.8
5,O=C(Nc1ccccc1)Nc1ccccc1C(=O)NCCCN1CCOCC1,46.3
6,CN=C(c1ccco1)n1c(=S)nc(-c2ccco2)n(C)c1=S,39.6
7,Cc1ccc(NC(=O)Nc2cc(C)on2)cc1,12.8
8,CCOC(=O)CNC(=S)N(Cc1ccccc1)Cc1ccccc1F,11.7
9,Cc1csc(NC(=O)c2ccc(OCC3CCCO3)cc2)n1 (stereo unspecified),21
10,Cc1cc2[nH]c(=O)c(=O)[nH]c2cc1S(=O)(=O)NCc1ccccc1,> 51.8
11,Cn1ccsc1=NC(=O)c1ccc(CS(C)(=O)=O)cc1,> 46.6
12,COc1ccc(CC(=O)NC2CC2)cc1OC,> 35.3
13,CCOC(=O)c1cnc2c(C)cccc2c1NCCCN1CCOCC1,> 53.6
14,CCOC(=O)c1cc(C)nc(Sc2ccc(C)cc2)c1C#N,3.1
15,CN(C)Cc1cc(C(C)(C)C)cc(C(C)(C)C)c1O,0.8
16,O=C1CSC(c2cccnc2)N1CC1CC1 (stereo unspecified),> 35.1
17,CN1C(C(=O)Nc2ccccn2)=C(O)c2sc(Cl)cc2S1(=O)=O,15.5
18,Cc1ccccc1OCC(=O)Nc1cccc(Cl)c1C,< 0.6
19,COC(=O)c1cccc(NC(=O)Nc2ccc(Cl)cc2Cl)c1,< 0.4
20,COc1ccc(C(=O)O/N=C(\N)c2ccccc2)cc1,27.1
21,CNC1=CC(=O)CC(c2ccccc2)C1 (stereo unspecified),> 30.2

row,SMILES,solubility kinetic [µg/mL]
1,COc1cccc(NC(=O)N(CCN(C)C)C(C)c2cccnc2)c1 (stereo unspecified),> 51.4
2,O=C(Oc1cc(=O)oc2c1c(=O)n1c3c(cccc23)CC1)c1ccccc1,33
3,COC(=O)c1ccc(CN=C(NS(=O)(=O)c2ccccc2)c2ccccc2)cc1,> 61.3
4,COC(=O)[C@@H](NC(=O)NCCC1=CCCCC1)C(C)C,> 42.4
5,Cc1ccc(C)c(C(=O)COC(=O)Cn2c(C)csc2=O)c1,> 47.9
6,CCCCNC(=O)CSc1nc(CCC)nc2ccccc12,4
7,O=C(NC1CCCCC1)c1cc(-c2ccccc2O)on1,0.6
8,CC(=O)c1ccc(-c2ccc(C(=O)NCC(c3ccco3)N(C)C)o2)cc1 (stereo unspecified),> 55
9,COc1ccc(CNC(=O)CCn2c(=O)[nH]c3ccccc3c2=O)cc1,2.9
10,CCCCCCCCOc1ccc(C2CC(=O)NC2=O)cc1 (stereo unspecified),< 0.6
11,COc1ccc(CN2CCC(Cc3ccccc3)CC2)c(C)c1C,17
12,OC[C@H]1O[C@@H](n2cnc3c(NC4CCCC4)ncnc32)[C@H](O)[C@@H]1O,> 50.3
13,Cc1cccc(OCC(=O)Nc2ccc(NC(=O)c3ccco3)c(C)c2)c1,4.4
14,S=C(NCC(c1ccco1)N1CCCC1)Nc1ccccc1 (stereo unspecified),> 47.3
15,O=C(COC(=O)c1ccccc1Br)NCC1CCCCC1,38.1
16,CCN(CC(=O)NCc1ccc(F)cc1)S(=O)(=O)c1ccc(Cl)s1,10.5
17,O=C(O)/C=C/C(=O)NCCc1cccc(Cl)c1,> 38.1
18,O=C(COC(=O)CCc1ccccc1)NCc1ccccc1,> 44.6
19,COc1cccc(C(=O)Nc2cccc3ccccc23)c1,1.5
20,Cc1ccc(N2CC(C(=O)NCCN3CCOCC3)CC2=O)cc1C (stereo unspecified),> 51.8
21,Cc1cc(NC(=O)c2cccs2)no1,> 31.2

row,SMILES,solubility kinetic [µg/mL]
1,CC1(C(=O)NCC2CCCO2)Oc2cccnc2NC1=O (stereo unspecified),> 43.7
2,S=C(NC1CCCCC1)N1CCCCC1,26.3
3,CC(=O)c1ccc(Sc2ccccn2)c([N+](=O)[O-])c1,38
4,CC(C)NC(=O)C(=O)Nc1cc2c3c(c1)C(C)C(=O)N3CCC2 (stereo unspecified),44.6
5,COP(=O)(OC)C(Nc1ccc(Cl)cc1)c1ccccc1 (stereo unspecified),> 48.9
6,OC(c1ccccc1)(c1ccccc1)C1CCNCC1,> 40.1
7,O=C(/C=C/c1c(F)cccc1Cl)NCCCN1CCOCC1,> 49
8,CC(C)(CNS(=O)(=O)c1ccc(Br)s1)N1CCOCC1,> 57.5
9,O=C(OCC(=O)N(CCc1ccccc1)Cc1ccccc1)c1cccc(O)c1,2.6
10,CC(C)c1ccc(C(O)Cc2nc3ccccc3n2C)cc1 (stereo unspecified),1.8
11,COc1cccc(NC(=O)c2cc3ccccc3oc2=O)c1,< 0.6
12,COc1cccc(N2CC(O)Cn3c2nc2c3c(=O)[nH]c(=O)n2C)c1 (stereo unspecified),> 51.5
13,O=c1c2ccccc2sn1-c1nccs1,1.4
14,C=CCN1C(=O)C2(OCCCO2)c2c(C)ccc(C)c21,28.2
15,O=C(COC(=O)c1cc([N+](=O)[O-])ccc1Cl)NC1CCCC1,> 49
16,CCOC(=O)Cc1csc(NC(=O)CSc2nc(C)cc(C)n2)n1,> 55
17,CC1CCCC(C)N1CC(O)COCc1ccccc1F.Cl (stereo unspecified),45.6
18,Cc1cc(Nc2ccc(Cl)cc2)nc(N2CCOCC2)n1,1.8
19,O=Cc1c(Nc2cccc(C(F)(F)F)c2)nc2ccccn2c1=O,1.7
